Laboratory results published in patent US20070015663A1, “Growth regulator and process for growth regulation of plant” (SUPER BLAST SYSTEMS CO., LTD., priority 2001, published 2007).
Where two headings read alike, the source gives them in different places.

What was measured:
[1] = system: tomato; test: Germination and seedling growth of tomato on absorbent cotton with test solution; format: in vivo, tomato (Lycopersicon esculentum)
Experimental: (§1) Absorbent cotton was spread on a 4.5 cm dish, and thereto was added 10 ml of a test solution. Seeds (10 seeds) were added thereto, grown at 23° C. for 4 days in the dark, and thereafter cultured at 23° C. for 3 days in the light (about 3000 lux).
FIG. 3 is a drawing illustrating the state of germination within each of the dishes similarly to FIG. 1. FIG. 4 is a drawing comparing the length of each embryonic axis (shoot) and that of each root similarly to FIG. 2.
FIG. 11 is a drawing illustrating the state of seeds within each of the dishes similarly to FIG. 1, and each control is shown. […] In addition, the lengths of each shoot and root are presented.
(§2) Indole-3-acetate (IAA) was used as the auxin.

[2] = system: Veronica persica Poir; test: Germination and seedling growth of Veronica persica Poir with test solution; format: in vivo
Experimental: as §1
FIG. 10 is a drawing illustrating the state of seeds within each of the dishes similarly to FIG. 1, and each control is shown. […] In addition, the lengths of each embryonic axis shoots and root are indicated.
as §2

[3] = system: rice; settings: 23° C. 4 days dark + 3 days light
Experimental: as §1
FIG. 1 is a drawing illustrating the state of seeds within each of the dishes. FIG. 2 is a drawing comparing the length of each shoot and the length of each root. […] For reference, the length of the label is 5 mm.

[4] = system: perennial ryegrass
Experimental: as §1
FIG. 7 is a drawing illustrating the state of seeds within each of the dishes similarly to FIG. 1. FIG. 8 is a drawing comparing the length of each shoot and that of each root similarly to FIG. 2.

[5] = system: lettuce
Experimental: as §1

[6] = system: radish
Experimental: as §1

[7] = system: lettuce; remark: listed apart in the source
Experimental: For control 1, absorbent cotton was spread on a 4.5 cm dish, and thereto was added 10 ml of water. Seeds (10 seeds) were added thereto, grown at 23° C. for 4 days in the dark, and thereafter cultured at 23° C. for 3 days in the light (about 3000 lux).

[8] = volcanic ash+0.1% NaHCO3 (100 g and 0.1% NaHCO3 solution 28 g)
[9] = volcanic ash+1% NaHCO3 (100 g and 1% NaHCO3 solution 28 g)
[10] = volcanic ash+10% NaHCO3 (100 g and saturated sodium bicarbonate solution 28 g)

O=C(O)Cc1c[nH]c2ccccc12 [IAA, indole-3-acetate]
length of the root ([1]; Example 8, IAA 10^−4 M alone): 30 mm
length of the shoot ([1]; Example 8, IAA 10^−4 M alone): 20 mm
length of the root ([1]; Example 8, IAA 10^−5 M alone): 41 mm
length of the shoot ([1]; Example 8, IAA 10^−5 M alone): 23 mm
length of the root ([2]; Example 9, IAA 10^−4 M alone): 11 mm
length of the shoot ([2]; Example 9, IAA 10^−4 M alone): 8 mm
length of the root ([2]; Example 9, IAA 10^−5 M alone): 22 mm
length of the shoot ([2]; Example 9, IAA 10^−5 M alone): 13 mm

O=C([O-])O.[Na+] [NaHCO3, sodium bicarbonate]
length of the root ([3]; NaHCO3 0.003%): 32.0±9.3 mm
length of the shoot ([3]; NaHCO3 0.003%): 11.0±1.0 mm
length of the root ([3]; NaHCO3 0.01%): 18.0±9.7 mm
length of the shoot ([3]; NaHCO3 0.01%): 10.0±0 mm
length of the root ([3]; NaHCO3 0.03%): 23.7±0.9 mm
length of the shoot ([3]; NaHCO3 0.03%): 15.0±1.0 mm
length of the root ([3]; NaHCO3 0.1%): 20.7±2.3 mm
length of the shoot ([3]; NaHCO3 0.1%): 13.3±0.9 mm
length of the root ([3]; NaHCO3 0.3%): 2.3±0.3 mm
length of the shoot ([3]; NaHCO3 0.3%): 7.3±1.5 mm
length of the root ([3]; NaHCO3 1%): 0±0 mm
length of the shoot ([3]; NaHCO3 1%): 3.3±0.3 mm
length of the root ([4]; NaHCO3 0.003%): 25.3±0.9 mm
length of the shoot ([4]; NaHCO3 0.003%): 24.7±0.3 mm
length of the root ([4]; NaHCO3 0.01%): 27.3±1.5 mm
length of the shoot ([4]; NaHCO3 0.01%): 42.0±0.6 mm
length of the root ([4]; NaHCO3 0.03%): 26.0±0.6 mm
length of the shoot ([4]; NaHCO3 0.03%): 44.3±1.5 mm
length of the root ([4]; NaHCO3 0.1%): 28.0±1.5 mm
length of the shoot ([4]; NaHCO3 0.1%): 55.7±0.7 mm
length of the root ([4]; NaHCO3 0.3%): 4.7±0.3 mm
length of the shoot ([4]; NaHCO3 0.3%): 19.0±0.6 mm
length of the root ([4]; NaHCO3 1%): 0±0 mm
length of the shoot ([4]; NaHCO3 1%): 0±0 mm
length of the root ([5]; NaHCO3 0.003%): 18.7±4.7 mm
length of the shoot ([5]; NaHCO3 0.003%): 14.0±0.6 mm
length of the root ([5]; NaHCO3 0.01%): 21.0±0.6 mm
length of the shoot ([5]; NaHCO3 0.01%): 24.3±0.9 mm
length of the root ([5]; NaHCO3 0.03%): 14.3±1.9 mm
length of the shoot ([5]; NaHCO3 0.03%): 24.3±0.3 mm
length of the root ([5]; NaHCO3 0.1%): 11.0±0.6 mm
length of the shoot ([5]; NaHCO3 0.1%): 15.7±0.3 mm
length of the root ([5]; NaHCO3 0.3%): 3.7±0.3 mm
length of the shoot ([5]; NaHCO3 0.3%): 6.7±0.3 mm
length of the root ([5]; NaHCO3 1%): 0±0 mm
length of the shoot ([5]; NaHCO3 1%): 0±0 mm
length of the embryonic axis (shoot) ([6]; NaHCO3 0.003%): 66.3±4.1 mm
length of the root ([6]; NaHCO3 0.003%): 37.0±1.5 mm
length of the embryonic axis (shoot) ([6]; NaHCO3 0.01%): 74.0±1.5 mm
length of the root ([6]; NaHCO3 0.01%): 71.3±1.9 mm
length of the embryonic axis (shoot) ([6]; NaHCO3 0.03%): 60.0±3.1 mm
length of the root ([6]; NaHCO3 0.03%): 80.7±5.9 mm
length of the embryonic axis (shoot) ([6]; NaHCO3 0.1%): 66.7±3.4 mm
length of the root ([6]; NaHCO3 0.1%): 22.0±1.5 mm
length of the embryonic axis (shoot) ([6]; NaHCO3 0.3%): 19.3±0.7 mm
length of the root ([6]; NaHCO3 0.3%): 7.3±1.3 mm
length of the embryonic axis (shoot) ([6]; NaHCO3 1%): 0±0 mm
length of the root ([6]; NaHCO3 1%): 0±0 mm
development of the root [7, 8]: 21.0±0.8 mm
development of the shoot [7, 8]: 33.4±1.1 mm
length of the root [7, 9]: 5.4±1.1 mm
length of the shoot [7, 9]: 26.0±1.5 mm
development of the root [7, 10]: 0 mm
development of the shoot [7, 10]: 0 mm
germination ([1]; in vivo): germination does not occur
length of the shoot ([1]; in vivo): 5 mm
length of the root ([2]; in vivo): 9 mm
length of the shoot ([2]; in vivo): 8 mm
